Experimental data: PubChem BioAssay (NCI)
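Values below derive from 48-hour exposures of cells grown in 96-well plates, with endpoints linearly interpolated between the two concentrations bracketing the appropriate inhibition level. TGI denotes the concentration required for complete inhibition of growth.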

Assays:
Test in all cases: growth of human tumour cells (NCI), 48 h
HT29 colon = test system: HT29 colon
COLO 205 colon = test system: COLO 205 colon
U251 CNS = test system: U251 CNS
786-0 renal = test system: 786-0 renal
OVCAR-5 ovarian = test system: OVCAR-5 ovarian
TK-10 renal = test system: TK-10 renal
UACC-62 melanoma = test system: UACC-62 melanoma
HS 578T breast = test system: HS 578T breast
HL-60(TB) leukemia = test system: HL-60(TB) leukemia
CAKI-1 renal = test system: CAKI-1 renal

CN(C)CCNc1ccc2c(=O)n(CCN(C)C)c(=O)n3c4ccc([N+](=O)[O-])cc4c(=O)c1c23
TGI (HT29 colon): 0.658 µM | TGI (COLO 205 colon): 2.12 µM | TGI (U251 CNS): 2.88 µM | TGI (786-0 renal): 2.74 µM | TGI (OVCAR-5 ovarian): 4.54 µM | TGI (TK-10 renal): 7.1 µM | TGI (UACC-62 melanoma): 3.17 µM | TGI (HS 578T breast): 3.09 µM | TGI (HL-60(TB) leukemia): 0.417 µM | TGI (CAKI-1 renal): 10.2 µM

COc1ccc(C2SCC(=O)N2c2ccc(-n3c(-c4ccccc4)nc4ccccc4c3=O)cc2)cc1OC (stereo not given)
TGI (HT29 colon): > 100 µM | TGI (COLO 205 colon): > 100 µM | TGI (U251 CNS): > 100 µM | TGI (786-0 renal): > 100 µM | TGI (OVCAR-5 ovarian): > 100 µM | TGI (TK-10 renal): > 100 µM | TGI (UACC-62 melanoma): > 100 µM | TGI (HS 578T breast): > 100 µM | TGI (HL-60(TB) leukemia): > 100 µM | TGI (CAKI-1 renal): > 100 µM

O=C1C(/C=C/c2ccc(Cl)cc2)=NNC2N1N=C1NC(=O)C3(NN12)c1ccccc1-c1ccccc13 (stereo not given)
TGI (HT29 colon): > 100 µM | TGI (COLO 205 colon): > 100 µM | TGI (U251 CNS): > 100 µM | TGI (786-0 renal): > 100 µM | TGI (OVCAR-5 ovarian): > 100 µM | TGI (TK-10 renal): > 100 µM | TGI (UACC-62 melanoma): > 100 µM | TGI (HS 578T breast): > 100 µM | TGI (HL-60(TB) leukemia): > 100 µM | TGI (CAKI-1 renal): > 100 µM

CCCCn1c(C)c(C(=O)OCC)s/c1=N/Nc1nc2ccccc2nc1-c1ccccc1
TGI (HT29 colon): > 100 µM | TGI (COLO 205 colon): > 100 µM | TGI (U251 CNS): > 100 µM | TGI (786-0 renal): > 100 µM | TGI (OVCAR-5 ovarian): > 100 µM | TGI (TK-10 renal): > 100 µM | TGI (UACC-62 melanoma): > 100 µM | TGI (HS 578T breast): 60.3 µM | TGI (HL-60(TB) leukemia): > 100 µM | TGI (CAKI-1 renal): > 100 µM

CC(=O)OCC1OC(n2c3c(c(-c4ccco4)c(C#N)c2=S)CCC3)C(OC(C)=O)C(OC(C)=O)C1OC(C)=O (stereo not given)
TGI (HT29 colon): > 100 µM | TGI (COLO 205 colon): > 100 µM | TGI (U251 CNS): > 100 µM | TGI (786-0 renal): > 100 µM | TGI (OVCAR-5 ovarian): > 100 µM | TGI (TK-10 renal): > 100 µM | TGI (UACC-62 melanoma): > 100 µM | TGI (HS 578T breast): > 100 µM | TGI (HL-60(TB) leukemia): > 100 µM | TGI (CAKI-1 renal): > 100 µM

O=c1[nH]c(=O)n(C2CC(O)C(CO)O2)cc1OCCCc1ccccc1 (stereo not given)
TGI (HT29 colon): > 100 µM | TGI (COLO 205 colon): > 100 µM | TGI (U251 CNS): > 100 µM | TGI (786-0 renal): > 100 µM | TGI (OVCAR-5 ovarian): > 100 µM | TGI (TK-10 renal): > 100 µM | TGI (UACC-62 melanoma): > 100 µM | TGI (HS 578T breast): > 100 µM | TGI (HL-60(TB) leukemia): > 100 µM | TGI (CAKI-1 renal): > 100 µM

CN(C)c1ccc(/C=C(\C#N)C(N)=C(C#N)C#N)cc1
TGI (HT29 colon): > 100 µM | TGI (COLO 205 colon): > 100 µM | TGI (U251 CNS): > 100 µM | TGI (786-0 renal): > 100 µM | TGI (OVCAR-5 ovarian): > 100 µM | TGI (TK-10 renal): > 100 µM | TGI (UACC-62 melanoma): > 100 µM | TGI (HS 578T breast): > 100 µM | TGI (HL-60(TB) leukemia): > 100 µM | TGI (CAKI-1 renal): > 100 µM

CC(C)(C)c1ccc(-c2nc3ccc([N+](=O)[O-])cc3c(=O)o2)cc1
TGI (HT29 colon): 69.4 µM | TGI (COLO 205 colon): 71.9 µM | TGI (U251 CNS): 43.4 µM | TGI (786-0 renal): > 100 µM | TGI (OVCAR-5 ovarian): > 100 µM | TGI (TK-10 renal): > 100 µM | TGI (UACC-62 melanoma): 79.3 µM | TGI (HS 578T breast): 80.8 µM | TGI (HL-60(TB) leukemia): 65.6 µM | TGI (CAKI-1 renal): > 100 µM

CC1=C2c3c(C)ccc4ccc(C)c(c34)C2(O)C(C)C1=O (stereo not given)
TGI (HT29 colon): > 100 µM | TGI (COLO 205 colon): 72.2 µM | TGI (U251 CNS): > 100 µM | TGI (786-0 renal): > 100 µM | TGI (OVCAR-5 ovarian): > 100 µM | TGI (TK-10 renal): > 100 µM | TGI (UACC-62 melanoma): > 100 µM | TGI (HS 578T breast): > 100 µM | TGI (HL-60(TB) leukemia): 91.6 µM | TGI (CAKI-1 renal): > 100 µM

CC(=O)C(=[N+]=[N-])C(=O)OC(C)(C)C#N
TGI (HT29 colon): > 10 µM | TGI (COLO 205 colon): > 10 µM | TGI (U251 CNS): > 10 µM | TGI (786-0 renal): > 10 µM | TGI (OVCAR-5 ovarian): > 10 µM | TGI (TK-10 renal): > 10 µM | TGI (UACC-62 melanoma): > 10 µM | TGI (HS 578T breast): > 10 µM | TGI (HL-60(TB) leukemia): > 10 µM | TGI (CAKI-1 renal): > 10 µM

CC(C)C1(C)N=C(C(F)(F)F)c2cc(C(=O)C(F)(F)F)c3ccccc3c2N1 (stereo not given)
TGI (HT29 colon): 13.5 µM | TGI (COLO 205 colon): 15.8 µM | TGI (U251 CNS): 11.1 µM | TGI (786-0 renal): 15.8 µM | TGI (OVCAR-5 ovarian): 24.5 µM | TGI (TK-10 renal): 15.5 µM | TGI (UACC-62 melanoma): 15.3 µM | TGI (HS 578T breast): 11 µM | TGI (HL-60(TB) leukemia): 23.3 µM | TGI (CAKI-1 renal): 9.74 µM

CC1(C)C(=O)C(C)(C)C12SSC1(S2)C(C)(C)C(=O)C1(C)C
TGI (HT29 colon): > 100 µM | TGI (COLO 205 colon): > 100 µM | TGI (U251 CNS): > 100 µM | TGI (786-0 renal): > 100 µM | TGI (OVCAR-5 ovarian): > 100 µM | TGI (TK-10 renal): > 100 µM | TGI (UACC-62 melanoma): > 100 µM | TGI (HS 578T breast): > 100 µM | TGI (HL-60(TB) leukemia): 21.1 µM | TGI (CAKI-1 renal): > 100 µM

CCCCCCOc1ccc(C(=O)NOCc2ccccc2)cc1
TGI (HT29 colon): > 100 µM | TGI (COLO 205 colon): > 100 µM | TGI (U251 CNS): > 100 µM | TGI (786-0 renal): > 100 µM | TGI (OVCAR-5 ovarian): > 100 µM | TGI (TK-10 renal): > 100 µM | TGI (UACC-62 melanoma): > 100 µM | TGI (HS 578T breast): > 100 µM | TGI (HL-60(TB) leukemia): > 100 µM | TGI (CAKI-1 renal): > 100 µM

CCc1n[nH]c(=O)n1/N=C/c1ccccc1Cl
TGI (HT29 colon): > 100 µM | TGI (COLO 205 colon): > 100 µM | TGI (U251 CNS): > 100 µM | TGI (786-0 renal): > 100 µM | TGI (OVCAR-5 ovarian): > 100 µM | TGI (TK-10 renal): > 100 µM | TGI (UACC-62 melanoma): > 100 µM | TGI (HS 578T breast): 10.2 µM | TGI (HL-60(TB) leukemia): > 100 µM | TGI (CAKI-1 renal): > 100 µM

O=C(/C=C/c1ccc(Cl)cc1)Oc1ccc(/C=C2\CCCCC2=O)cc1
TGI (HT29 colon): > 100 µM | TGI (COLO 205 colon): > 100 µM | TGI (U251 CNS): > 100 µM | TGI (786-0 renal): > 100 µM | TGI (OVCAR-5 ovarian): > 100 µM | TGI (TK-10 renal): > 100 µM | TGI (UACC-62 melanoma): > 100 µM | TGI (HS 578T breast): > 100 µM | TGI (HL-60(TB) leukemia): > 100 µM | TGI (CAKI-1 renal): > 100 µM

O=C(O)C1CCCN1Cc1cc2ccccc2c2ccccc12 (stereo not given)
TGI (HT29 colon): > 100 µM | TGI (COLO 205 colon): > 100 µM | TGI (U251 CNS): > 100 µM | TGI (786-0 renal): > 100 µM | TGI (OVCAR-5 ovarian): > 100 µM | TGI (TK-10 renal): > 100 µM | TGI (UACC-62 melanoma): > 100 µM | TGI (HS 578T breast): > 100 µM | TGI (HL-60(TB) leukemia): > 100 µM | TGI (CAKI-1 renal): > 100 µM

CC1(C)CC(=O)C2=C(C1)c1c(ccc3ccccc13)NC2c1cn(Cc2ccc(Cl)cc2)c2ccccc12 (stereo not given)
TGI (HT29 colon): > 100 µM | TGI (COLO 205 colon): > 100 µM | TGI (U251 CNS): > 100 µM | TGI (786-0 renal): > 100 µM | TGI (OVCAR-5 ovarian): > 100 µM | TGI (TK-10 renal): > 100 µM | TGI (UACC-62 melanoma): > 100 µM | TGI (HS 578T breast): > 100 µM | TGI (HL-60(TB) leukemia): > 100 µM | TGI (CAKI-1 renal): > 100 µM

CC1(C)N=C(C(N)=O)c2ncn(-c3ccccc3)c2N1
TGI (HT29 colon): > 100 µM | TGI (COLO 205 colon): > 100 µM | TGI (U251 CNS): > 100 µM | TGI (786-0 renal): > 100 µM | TGI (OVCAR-5 ovarian): > 100 µM | TGI (TK-10 renal): > 100 µM | TGI (UACC-62 melanoma): > 100 µM | TGI (HS 578T breast): > 100 µM | TGI (HL-60(TB) leukemia): > 100 µM | TGI (CAKI-1 renal): > 100 µM
